Measurements reported in the METLIN SMRT retention time set (Domingo-Almenara et al. 2019).

Assay: gradient 5% acetonitrile 3 min, to 50% in 2 min, to 85% in 15 min, held 3 min, 100 µL/min
Conditions: column: Zorbax Extend-C18 2.1 x 50 mm; eluents: water / acetonitrile, 0.1% formic acid
In short: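 Values are retention times taken from adduct peaks that software picked and an analyst inspected. The pure standards were run as mixtures of ~100 molecules on HPLC linked to a quadrupole time-of-flight mass spectrometer, in positive and negative ionization mode. A Zorbax Extend-C18 column (2.1 × 50 mm, 1.8 μm) was used at 100 μL/min with water and acetonitrile, each including 0.1% formic acid.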

| RP-LC retention time [s] | Structure (SMILES) |
| --- | --- |
| 774 | C=CCNC(=O)CN1C(=O)C2CCCCN2c2ccc(S(=O)(=O)N(C)C)cc21 (stereo unspecified) |
| 1150 | CC1(C)CCC[C@@](C)([C@H]2CC[C@]3(C)[C@@H]2[C@H](O)C[C@@H]2[C@@]4(C)CC[C@H](O)C(C)(C)[C@@H]4[C@@H](O)C[C@]23C)O1 |
| 660 | CCN(CC)c1ncc2c(n1)CCC(C(=O)Nc1cccc(C(=O)OC)c1)C2 (stereo unspecified) |
| 576 | OC1(c2ccccn2)CCOC2(CCN(Cc3cccc(Cl)c3F)CC2)C1 (stereo unspecified) |
| 976 | CC(C)c1ccc(CNC(=O)c2ccc3c(c2)N(C)C2CCCCN2C3=O)cc1 (stereo unspecified) |
| 754 | CC(=O)Nc1ccc(NC(=O)C2CCN(S(=O)(=O)c3c(C)nn(-c4ccccc4)c3C)CC2)cc1 |
| 737 | Cc1cc(NC(=O)c2ccc(S(=O)(=O)Nc3ccc4c(c3)OCO4)o2)no1 |
| 643 | CCn1nccc1C(=O)N1CCC(n2c(-c3ccsc3)nc3cccnc32)C1 (stereo unspecified) |
| 617 | COc1ccc(N2CCN(C(=O)c3cn(-c4ccc(NC(C)=O)cn4)cn3)CC2)cc1 |
| 594 | COc1ccc(CCS(=O)(=O)NCC(c2cccn2C)N2CCOCC2)cc1 (stereo unspecified) |
| 681 | CCOC(=O)c1csc(NC(=O)Cc2ccc(S(=O)(=O)CC)cc2)n1 |
| 735 | Cc1[nH]c(C(=O)N2CCC(CC(=O)N3CCCC3)CC2)c(C)c1C(=O)OC(C)C |
| 848 | Cc1ccc(Nc2c(-c3ccc(N4CCOCC4)cc3)nc3cnccn23)cc1 |
| 606 | NC(=O)C1CCN(C(=O)CSc2nnc(-c3sc4ncccc4c3N)n2C2CC2)CC1 |
| 580 | Cc1ccc(C)c(NC(=O)N2CCc3nc[nH]c3C2)c1 |
| 692 | COc1ccc(NC(=O)N2CCCC(Cn3cnc4cccnc43)C2)cc1Cl (stereo unspecified) |
| 557 | CN(C)C[C@@H]1CN(c2ccncn2)C[C@H]1NC(=O)c1nccc2ccccc12 |
| 972 | COc1ccc(-c2noc(C3CCCN3C(=O)Nc3cccc(Br)c3)n2)cc1 (stereo unspecified) |

| RP-LC retention time [s] | Structure (SMILES) |
| --- | --- |
| 987 | Cc1cccc2sc(NC(=O)C3(c4cccs4)CCOCC3)nc12 |
| 611 | N#CCCN1CCN(C2=NC(=O)/C(=C\c3cccs3)S2)CC1 |
| 580 | CCCC(=O)N1CCN(c2nc(CN3CCOCC3)cs2)CC1 |
| 1010 | O=C(c1nnc(-c2ccc(S(=O)(=O)N3CCCCC3)cc2)o1)N1CCCCCC1 |
| 650 | CC(=O)N1CCc2cc(S(=O)(=O)NCCn3nc(-c4cccs4)ccc3=O)ccc21 |
| 603 | CS(=O)(=O)N(Cc1ccccn1)C1CN(C(=O)C2CCC2)C1 |
| 782 | CN1C(=O)c2cc(C(=O)N3CCCCC3)nn2CC1(C)C(=O)NC1CCCCCC1 (stereo unspecified) |
| 595 | COCc1cc(=O)n(CC(=O)NCc2ccccc2)c(N)n1 |
| 859 | O=C(NCCc1c[nH]c2ccccc12)c1cc(-c2ccc(F)cc2)c[nH]1 |
| 698 | CSc1ccc(CNC(=O)Cn2c(C)cc(C)c(C#N)c2=O)cc1 |
| 959 | Cc1ccc(S(=O)(=O)N2CC(=O)N(c3ccccc3F)C(C)(C(=O)NC3CCCC3)C2)cc1 (stereo unspecified) |
| 669 | CCC(C)NC(=O)C1CCN(S(=O)(=O)c2cn(C(C)C)cn2)CC1 (stereo unspecified) |
| 589 | CCn1nc(C)c(-c2cc(C(=O)O)[nH]n2)c1C |
| 772 | CC(Oc1ccc(=O)n(-c2ccc(F)cc2)n1)C(=O)Nc1ccccc1F (stereo unspecified) |
| 888 | COc1ccc(CNC(=O)Cn2c(=O)cc(-c3nc(C4CC4)no3)c3ccccc32)cc1 |
| 780 | COc1ccc2[nH]cc(CCN3CC(C(=O)Nc4nnc(C(F)(F)F)s4)CC3=O)c2c1 (stereo unspecified) |
| 629 | COc1ccc(/C=C/c2nc(C#N)c(NCCCN(C)C)o2)cc1OC |
| 760 | CCn1cnc(S(=O)(=O)N2CCCC(C(=O)Nc3cccc(F)c3)C2)c1 (stereo unspecified) |
